Assay results from patent US20090142429A1, “SILICIBACTER SP. STRAIN USEFUL FOR GENETIC TRANSFORMATION OF MARINE ALGAE AND PRODUCTION OF ANTIBIOTIC AGENTS” (UNIVERSITY OF MARYLAND BIOTECHNOLOGY INSTITUTE, priority 2005, published 2009).

Tests used:
Type in all cases: cell-based
[1] = test system: Silicibacter sp. strain TM1040; assay: Chemotaxis plate screening assay (change in motile colony morphology); details: for Change in morphology with carbon source Alanine / Change in morphology with carbon source Glucose / Change in morphology with carbon source Glycerol / Change in morphology with carbon source Succinate: BM motility agar; for Change in morphology with carbon source Alanine: alanine as single carbon source; for Change in morphology with carbon source Glucose: glucose as single carbon source; for Change in morphology with carbon source Glycerol: glycerol as single carbon source; for Change in morphology with carbon source Succinate: succinate as single carbon source; as to Change in morphology with carbon source Alanine: key: −: minus indicates no change compared to distilled water or no attractant controls; +: either one or two pluses indicates moderate to strong alteration in motile colony phenotype (respectively); ++: either one or two pluses indicates moderate to strong alteration in motile colony phenotype (respectively); as to Change in morphology with carbon source Glucose: key: −: minus indicates no change compared to distilled water or no attractant controls; +: either one or two pluses indicates moderate to strong alteration in motile colony phenotype (respectively); ++: either one or two pluses indicates moderate to strong alteration in motile colony phenotype (respectively); as to Change in morphology with carbon source Glycerol: key: −: minus indicates no change compared to distilled water or no attractant controls; +: either one or two pluses indicates moderate to strong alteration in motile colony phenotype (respectively); ++: either one or two pluses indicates moderate to strong alteration in motile colony phenotype (respectively); as to Response: change in motile colony morphology of TM1040 in response to attractants, compared to the control: key: −: minus indicates no change compared to distilled water or no attractant controls; +: either one or two pluses indicates moderate to strong alteration in motile colony phenotype (respectively); ++: either one or two pluses indicates moderate to strong alteration in motile colony phenotype (respectively)
Procedure: Following 36 h of incubation, a putative attractant was placed approximately 5 cm from the site of inoculation (or 2.5 cm in front of the periphery of motile cells). Possible chemoattractant compounds were administered as either a sterile solid or concentrated stock solutions. The cells were further incubated for 16 h to allow for additional outward movement, at which time measurement of diameter, shape, and chemotaxis rings internal to the motile colony were made.
[…] Bacteria inoculated into the center of the agar consume nutrients and create a concentration gradient that increases outward from the point of inoculation. The bacteria sense the increasing gradient and swim outwards, seeking higher concentrations of nutrients, which is manifested as a symmetrical “motile” colony. If an attractant is placed at a short distance in front of the advancing motile colony, it forms a second gradient moving towards the oncoming cells that will affect the symmetry of the colony by reducing the net outward swimming of the bacteria.

[2] = test system: Silicibacter sp. strain TM1040; assay: Quantitative capillary chemotaxis assay; details: for response factor (mean): pure compounds, FIG. 12, capillaries filled with 2 μM or 200 μM attractant; for mean concentration of bacteria in methionine-filled capillaries: starved cells
From the text: The cells were pelleted by centrifugation at 4,000×g in a tabletop centrifuge (Centra-CL2; International Equipment Company), the supernatant was discarded, and the pellet was resuspended in chemotaxis buffer (CB) (15 g of ASW, 6 g of Tris-HCl per liter [pH 7.6]) to the same OD. Five hundred microliters of washed cells was placed in one of the wells of the Palleroni chamber, followed by a 1-μl capillary (Microcaps; Drummond) filled with a putative attractant diluted in CB. This process was repeated for each of the four wells in the chamber. A capillary filled with CB only was included in each experiment as a negative control. Depending on the experiment, capillaries remained in the chambers for 0.5 to 2 h, after which time they were removed, and the contents of each capillary were serially diluted in CB. Final dilutions were then spread on HIASW agar plates and incubated for 16 h at 30° C. The concentration of TM1040 in each capillary was derived by counting the CFU on each plate and multiplying by the appropriate dilution factor. […]

[3] = test system: Silicibacter sp. strain TM1040; assay: Capillary assay: reduction in chemotaxis toward P. piscicida homogenates by externally supplied attractant; details: for % Reduction in CFU per capillary compared to the control / No. of bacteria per capillary (CFU · 10^4), attractant added to external buffer: 200 μM attractant in external buffer; for No. of bacteria per capillary (CFU · 10^4), attractant added to external buffer: SD in parentheses; for mean number of bacteria in the untreated capillaries: untreated homogenate, attractant supplied externally in the buffer
Procedure: The capillary assay was also used to measure the reduction in chemotaxis through competition when a known attractant was supplied exogenously (i.e., outside the capillary). In this variation, the quantitative capillary method was used, but a known attractant was included in the CB used to suspend the washed cells. A capillary containing a mixture of potential chemoattractant molecules was then placed in the chamber and incubated as described earlier. At the completion of the assay, the percent reduction in chemotaxis was calculated using the following formula: % reduction=[1−(CFU ml^−1exogenous/CFU ml^−1control)]×(100).
Dinoflagellates and Rhodomonas sp. were grown to late exponential phase (ca. 10^5 to 10^6 cells per ml), and the cell density was measured using a Coulter Counter (model M/SZRII; Beckman Coulter). Dinoflagellates were harvested after starvation of the culture to remove Rhodomonas prey algae, which was confirmed by microscopy. The cell densities in P. piscicida and Rhodomonas cultures were normalized to 10^5 cells per ml, and each culture was then pelleted by centrifugation at 4,000×g and 4° C. for 10 min. The supernatant was removed, and the pellets were separately resuspended with either 1 ml of ice-cold distilled water or CB. The cells were homogenized by sonication (Sonic Dismembrator; Fisher), and cell disruption was assessed by microscopy. To examine the heat sensitivity of chemotaxis elicitors, an aliquot of each homogenate was heated to 80° C. for 15 min prior to the assay. All homogenates were then stored at −20° C. When required, the homogenates were thawed, held on ice, and used in the capillary assay as described.

[4] = heated (80° C. for 15 min) P. piscicida homogenate
[5] = untreated P. piscicida homogenate

O=C(O)CCC(=O)C(=O)O [Alpha-ketoglutarate]
Response: change in motile colony morphology of TM1040 in response to attractants, compared to the control ([1]; BM glycerol motility agar): − | chemotactic response of TM1040 in plate assay ([1]; BM glycerol motility agar): no response | Change in morphology with carbon source Alanine [1]: − | Change in morphology with carbon source Glucose [1]: − | Change in morphology with carbon source Glycerol [1]: − | Change in morphology with carbon source Succinate [1]: + | response factor (mean) [2]: none were found to be significant chemoattractants

O=C(O)CC(O)(CC(=O)O)C(=O)O [Citrate]
Response: change in motile colony morphology of TM1040 in response to attractants, compared to the control ([1]; BM glycerol motility agar): ++ | chemotactic response of TM1040 in plate assay ([1]; BM glycerol motility agar): strong positive response | response factor (mean) [2]: none were found to be significant chemoattractants

NCC(=O)O [Glycine]
Response: change in motile colony morphology of TM1040 in response to attractants, compared to the control ([1]; BM glycerol motility agar): + | response factor (mean) [2]: ca. 3.5

O=C(O)CCC(=O)O [Succinate]
Response: change in motile colony morphology of TM1040 in response to attractants, compared to the control ([1]; BM glycerol motility agar): + | chemotactic response of TM1040 in plate assay ([1]; BM glycerol motility agar): mild response | Change in morphology with carbon source Alanine [1]: ++ | Change in morphology with carbon source Glucose [1]: + | Change in morphology with carbon source Glycerol [1]: + | Change in morphology with carbon source Succinate [1]: − | chemotactic response of TM1040 in plate assay ([1]; glucose background (BM glucose)): moderate response | response factor (mean) [2]: none were found to be significant chemoattractants

O=C(O)/C=C/C(=O)O [fumurate]
Response: change in motile colony morphology of TM1040 in response to attractants, compared to the control ([1]; BM glycerol motility agar): ++ | chemotactic response of TM1040 in plate assay ([1]; BM glycerol motility agar): strong positive response

N[C@@H](CCC(=O)O)C(=O)O [glutamic acid]
Response: change in motile colony morphology of TM1040 in response to attractants, compared to the control ([1]; BM glycerol motility agar): ++ | Change in morphology with carbon source Alanine [1]: − | Change in morphology with carbon source Glucose [1]: − | Change in morphology with carbon source Glycerol [1]: ++ | Change in morphology with carbon source Succinate [1]: +

OCC(O)CO [glycerol]
Response: change in motile colony morphology of TM1040 in response to attractants, compared to the control ([1]; BM glycerol motility agar): +

N[C@@H](Cc1c[nH]cn1)C(=O)O [histidine]
Response: change in motile colony morphology of TM1040 in response to attractants, compared to the control ([1]; BM glycerol motility agar): +

CC[C@H](C)[C@H](N)C(=O)O [isoleucine]
Response: change in motile colony morphology of TM1040 in response to attractants, compared to the control ([1]; BM glycerol motility agar): +

CC(C)C[C@H](N)C(=O)O [leucine]
Response: change in motile colony morphology of TM1040 in response to attractants, compared to the control ([1]; BM glycerol motility agar): +

NCCCC[C@H](N)C(=O)O [lysine]
Response: change in motile colony morphology of TM1040 in response to attractants, compared to the control ([1]; BM glycerol motility agar): + | Change in morphology with carbon source Alanine [1]: − | Change in morphology with carbon source Glucose [1]: − | Change in morphology with carbon source Glycerol [1]: + | Change in morphology with carbon source Succinate [1]: − | response factor (mean) [2]: ca. 3.5

OC[C@H]1O[C@H](O[C@H]2[C@H](O)[C@@H](O)[C@H](O)O[C@@H]2CO)[C@H](O)[C@@H](O)[C@@H]1O [maltose]
Response: change in motile colony morphology of TM1040 in response to attractants, compared to the control ([1]; BM glycerol motility agar): + | chemotactic response of TM1040 in plate assay ([1]; BM glycerol motility agar): responded positively | Change in morphology with carbon source Alanine [1]: ++ | Change in morphology with carbon source Glucose [1]: − | Change in morphology with carbon source Glycerol [1]: + | Change in morphology with carbon source Succinate [1]: ++

CSCC[C@H](N)C(=O)O [methionine]
Response: change in motile colony morphology of TM1040 in response to attractants, compared to the control ([1]; BM glycerol motility agar): ++ | chemotactic response of TM1040 in plate assay ([1]; BM glycerol motility agar): significant effects on the periphery of the motile colony | response factor (mean) [2]: 9.8 | mean concentration of bacteria in methionine-filled capillaries ([2]; 0.5 h, 200 μM): 5.3×10^7 CFU per ml | mean concentration of bacteria in methionine-filled capillaries ([2]; 1 h, 200 μM): 1.8×10^8 CFU per ml | mean concentration of bacteria in methionine-filled capillaries ([2]; 1.5 h, 200 μM): 2.4×10^8 CFU per ml | mean concentration of bacteria in methionine-filled capillaries ([2]; 2 h, 200 μM): 2.4×10^8 CFU per ml | maximum mean concentration of bacteria in methionine-filled capillaries ([2]; without starvation, peak at 1.5 h, 200 μM): 2.1×10^8 CFU per ml | % Reduction in CFU per capillary compared to the control [3, 4]: 48% | No. of bacteria per capillary (CFU · 10^4), attractant added to external buffer [3, 4]: 1.80 (±0.11) CFU · 10^4 | % Reduction in CFU per capillary compared to the control ([3]; heated (80° C. for 15 min) P. piscicida homogenate, listed as Methionine): 48.72% | % Reduction in CFU per capillary compared to the control [3, 5]: 58% | No. of bacteria per capillary (CFU · 10^4), attractant added to external buffer [3, 5]: 3.03 (±0.32) CFU · 10^4 | % Reduction in CFU per capillary compared to the control ([3]; untreated P. piscicida homogenate, listed as Methionine): 58.15% | mean number of bacteria in the untreated capillaries [3]: 3.03×10^4 CFU per ml

N[C@@H](Cc1ccccc1)C(=O)O [phenylalanine]
Response: change in motile colony morphology of TM1040 in response to attractants, compared to the control ([1]; BM glycerol motility agar): ++

O=C(O)[C@@H]1CCCN1 [proline]
Response: change in motile colony morphology of TM1040 in response to attractants, compared to the control ([1]; BM glycerol motility agar): ++

O=C[C@H](O)[C@H](O)[C@H](O)CO [ribose]
Response: change in motile colony morphology of TM1040 in response to attractants, compared to the control ([1]; BM glycerol motility agar): −

N[C@@H](CO)C(=O)O [serine]
Response: change in motile colony morphology of TM1040 in response to attractants, compared to the control ([1]; BM glycerol motility agar): +

OC[C@H]1O[C@@](CO)(O[C@H]2O[C@H](CO)[C@@H](O)[C@H](O)[C@H]2O)[C@@H](O)[C@@H]1O [sucrose]
Response: change in motile colony morphology of TM1040 in response to attractants, compared to the control ([1]; BM glycerol motility agar): ++ | chemotactic response of TM1040 in plate assay ([1]; BM glycerol motility agar): responded positively

C[C@@H](O)[C@H](N)C(=O)O [threonine]
Response: change in motile colony morphology of TM1040 in response to attractants, compared to the control ([1]; BM glycerol motility agar): ++

N[C@@H](Cc1c[nH]c2ccccc12)C(=O)O [tryptophan]
Response: change in motile colony morphology of TM1040 in response to attractants, compared to the control ([1]; BM glycerol motility agar): +

N[C@@H](Cc1ccc(O)cc1)C(=O)O [tyrosine]
Response: change in motile colony morphology of TM1040 in response to attractants, compared to the control ([1]; BM glycerol motility agar): +

CC(C)[C@H](N)C(=O)O [valine]
Response: change in motile colony morphology of TM1040 in response to attractants, compared to the control ([1]; BM glycerol motility agar): ++ | chemotactic response of TM1040 in plate assay ([1]; BM glycerol motility agar): significant effects on the periphery of the motile colony | Change in morphology with carbon source Alanine [1]: + | Change in morphology with carbon source Glucose [1]: − | Change in morphology with carbon source Glycerol [1]: ++ | Change in morphology with carbon source Succinate [1]: + | response factor (mean) [2]: 6.1 | % Reduction in CFU per capillary compared to the control [3, 4]: 74% | No. of bacteria per capillary (CFU · 10^4), attractant added to external buffer [3, 4]: 0.91 (±0.24) CFU · 10^4 | % Reduction in CFU per capillary compared to the control ([3]; heated (80° C. for 15 min) P. piscicida homogenate, listed as Valine): 74.07% | % Reduction in CFU per capillary compared to the control [3, 5]: 78% | No. of bacteria per capillary (CFU · 10^4), attractant added to external buffer [3, 5]: 1.53 (±0.15) CFU · 10^4 | % Reduction in CFU per capillary compared to the control ([3]; untreated P. piscicida homogenate, listed as Valine): 78.87% | mean number of bacteria in the untreated capillaries [3]: 1.53×10^4 CFU per ml

O=C[C@H](O)[C@@H](O)[C@H](O)CO [xylose]
Response: change in motile colony morphology of TM1040 in response to attractants, compared to the control ([1]; BM glycerol motility agar): −
